# Data reported in a melting point compilation (Tetko et al.; mined from patent text by program, amines drawn as free bases though some values may be those of a salt).
row,Compound,melting point
1,C=CCO[C@@H]1CC(C(=O)O)=C[C@@H](OC(C)C)[C@@H]1NC(C)=O,70 to 71 °C
2,Nc1cc(=O)[nH]c2ccccc12,> 250 °C
3,Clc1ccc(CSCc2ccc(Cl)cc2)cc1,42 to 44 °C
4,Cc1cccc(-c2ccccc2)c1NC(=N)N(C)C,144 to 145 °C
5,Cn1nc(-c2cccc(Cl)c2)cc1C(=O)O,164 to 167 °C
6,COC(=O)C1CCSSC(C)(C)C(=O)N1 (stereo not given),110 to 112 °C
7,CCOC(=O)c1ccc(NC2(C#N)CCCCC2)cc1,101 to 102 °C
8,O=C(C1CCCCC1)C1CCN(S(=O)(=O)c2ccccc2)CC1,141 to 143 °C
9,CCNC(=O)c1ccc(-c2ccc3nnn(C(C)(C)c4ccc5ncccc5c4)c3n2)cc1F,132 to 135 °C
10,N#Cc1cccc(C2=Nc3cc(O)c(-c4ccccc4F)cc3NC(=O)C2)c1,> 250 °C
11,CCOC(=O)CCCOc1ccc2c(c1)C[C@@H](NC(=O)OC(C)(C)C)CC2,96 to 98 °C
12,O=C1CSCN1CCCCN1CCN(c2ccc3ccccc3n2)CC1,105 to 107 °C
13,"NC1CCCCCCCCCCC(=O)N1 (single isomer, unassigned; (-))",128 to 130 °C
14,O=[N+]([O-])c1cc(Cl)cc2c(Cl)ccnc12,149 to 164 °C
15,NC(Cc1ccccc1)C(=O)CCC(=O)O (stereo not given),138 to 139 °C
16,Cc1nn(-c2ccc(Cl)cc2)c(C)c1NC(N)=S,244 to 246 °C
17,CCC(=O)N1CCC(=NO)c2cc(Cl)ccc21,166 to 169 °C
18,CCOC(=O)C(C#N)(Cc1cc(OC)c(OC)c(OC)c1)C(OCC)OCC (stereo not given),95 to 97 °C
19,C=Cc1cc(CNC(=O)C(F)=Cc2ccc(C(C)(C)C)cc2)cc(F)c1NS(C)(=O)=O,165 to 167 °C
20,COc1ccc(CC(=O)c2ccccc2)cc1OC,80 to 81 °C
21,COc1ccc(CN2C(=O)c3c(-c4ccccc4Cl)cc4[nH]c5ccc(OC)cc5c4c3C2=O)c(OC)c1,224 to 226 °C
22,O=c1[nH]c(COc2ccc(Cl)c(Cl)c2)nc2nccnc12,285 to 287 °C
23,CC1(C)Oc2ccc(S(C)(=O)=O)cc2[C@@H](N2CCSC2=NC#N)[C@@H]1O (relative stereo),304 to 307 °C
24,CCNC(=O)[C@@H]1C[C@]2(NC(=O)N(CCCCl)C2=O)c2cc(F)ccc2O1,95 to 97 °C
25,CC1(C)CC(=C(c2ccc(O)cc2)c2ccc(S(C)(=O)=O)cc2)CC(C)(C)C1,149 to 150 °C

row,Compound,melting point
1,CC1(C)CC(N2CCCC2)=CC(=C(C#N)S(C)(=O)=O)C1,260 to 261 °C
2,O=C(O)CCc1cn(Cc2cccc(C(=O)Nc3cccnc3)c2)nc1-c1ccccc1,131 to 132 °C
3,CN(C)CC(C)(C)Oc1ccc(Nc2cc(-c3cccc(-n4ncc5cc(C(C)(C)C)cc(F)c5c4=O)c3CO)nn(C)c2=O)nc1,136 to 144 °C
4,CCCCc1ccc(-c2ncc(C#N)c(Cl)n2)cc1,107 °C
5,COc1ccc(SCc2c(C(C)C)nc(C(C)C)c(CO)c2-c2ccc(F)cc2)cc1,92 to 93 °C
6,O=C(NC(Cc1c[nH]c2ccccc12)C(=O)OCc1cccc(C(F)(F)F)c1)c1ccccc1 (stereo not given),118 °C
7,O=C(NCCCN1CCN(c2cccc(Cl)c2)CC1)NC12CC3CC(CC(C3)C1)C2,174 to 175 °C
8,COC(=O)C(=CNc1ccnc(-c2ccncc2)n1)C(=O)OC,209 to 211 °C
9,COc1cccc2c1OC(C(C)C)C2=O (stereo not given),46 to 47 °C
10,CC(=O)Nc1ccc(C(=O)c2cccnc2)cc1,215 °C
11,Cc1onc(-c2ccc(Cl)o2)c1-c1ccc(F)cc1,104 to 105 °C
12,CC(C)(O)C(=O)Nc1nc(-c2ccco2)c(C(=O)c2ccccc2)s1,153 to 154 °C
13,Cc1cc(C2=CO[C@@](c3cc(Cl)cc(Cl)c3)(C(F)(F)F)C2)ccc1C(=O)NCC(=O)NCC(F)(F)F,120 to 155 °C
14,COC1CN(C(=O)c2cnn(C)c2C(=O)Nc2ccn3nc(-c4ccccc4)nc3c2)C1,269 to 270 °C
15,COc1cc2c(cc1OC)C(=O)C(=O)N(CCCN(C)CCCSc1cc(Br)c(N)c(Br)c1)CC2,118 to 125 °C
16,O=C(O)c1ccc(COCc2csc3nc(C(=O)NCc4cccnc4)[nH]c(=O)c23)cc1,309 to 311 °C
17,O=[N+]([O-])c1sc(-c2cccnc2)nc1Cl,110 to 112 °C
18,CCCc1c(C(=O)O)c(=O)cc(-c2ccccc2)n1C,150 °C
19,c1ccc(N2CCN(Cc3nc4ccccc4[nH]3)CC2)nc1,220 to 221 °C
20,COc1cc2ncc(C#N)c(Nc3cccc(F)c3)c2cc1OC,226 to 230 °C
21,Nc1ccc(CP2(=O)OCCCO2)cc1,172 to 173 °C
22,CCOC(=O)c1c2n(c3ccc(Cl)c(Cl)c3c1=O)CCS2,266 to 267 °C
23,CCCCCCCCCCCCCCCCCCNC(=O)OCC(CNS(=O)(=O)CCCI)n1nnnc1C (stereo not given),82.5 to 83.5 °C
24,O=C1NCCC[C@@H]1NS(=O)(=O)c1ccccc1F,180 to 183 °C
25,CCOC(=O)c1cnn(C)c1S(N)(=O)=O,102 to 104 °C

row,Compound,melting point
1,O=C(O)c1cccc2c1CCCC2O (stereo not given),160 to 162 °C
2,N#Cc1cnc2cc(-c3ccc(CN4CCOCC4)o3)ccc2c1Nc1ccc(Cl)cc1Cl,118 to 120 °C
3,OCCOc1ccc(-c2nc(-c3ccc(Cl)cc3)nc(-c3ccc(OCCO)cc3O)n2)c(O)c1,149 to 150 °C
4,C[C@@H](n1cnc2cccc(F)c2c1=O)[C@](O)(Cn1cncn1)c1ccc(F)cc1F,94 to 122 °C
5,CCOC(=O)n1c(=S)[nH]c2ccc(Br)cc2c1=O,214 °C
6,CSc1[nH]n(C2CCCC2)c2nc(-c3ccncc3)nc(=O)c1-2,272 to 274 °C
7,O=C1Nc2ccc(Br)cc2C1c1ncnc2nn(C3CCCCC3)cc12 (stereo not given),285 to 290 °C
8,COc1c2c(c(OC)c(OC)c1OC)CCC(=O)CC2,77 to 78 °C
9,Cc1csc(C)c1N(Cn1cccn1)C(=O)CCl,88 to 89 °C
10,CCn1nc(Cl)c(CS(=O)(=O)C2=NOC(C)(C)C2)c1Cl,105 to 107 °C
11,CC(C=O)n1nnc2ccc(Oc3cc(F)c(C(F)(F)F)c(Cl)c3)cc21 (stereo not given),107 to 108 °C
12,CCC(C)N1C(=O)c2ccccc2Oc2ncccc21 (stereo not given),137 to 138 °C
13,CCOc1cc2c(Nc3cc(OC)c(Cl)cc3Cl)c(C#N)cnc2cc1OCC1CCN(C)CC1,182 to 186 °C
14,O=[N+]([O-])c1ccc2ccn(CCCCl)c2c1,85 to 87 °C
15,CCCCCCCNC(=O)n1nc(Oc2ncc(C(F)(F)F)cc2Cl)c(Cl)c1C,67 to 68 °C
16,O=[N+]([O-])c1cc(C(F)(F)F)ccc1C(O)c1cnoc1C1CC1 (stereo not given),76 °C
17,Clc1ccc(N2CCN(CCCc3c4c(nn3-c3ccc(Cl)cc3)CCCC4)CC2)cc1,129 to 131 °C
18,CC(C)(C#N)c1ccc(C(=O)CCCCl)cc1,79 to 80 °C
19,O=C1OC(C2CCCCC2)(C2CCCCC2)C2CNCCN12 (stereo not given),151 to 152 °C
20,NS(=O)(=O)Cc1cccc(NC(=O)c2cnn3c(C(F)F)cc(-c4ccc(C(F)(F)F)cc4)nc23)c1,280 °C
21,Cc1ccc(F)c(C(C)Oc2ccc3nc(-c4ccccc4OC(N)=O)sc3c2)c1Cl (stereo not given),205 °C
22,CC(C)(Oc1ccc(CCC(=O)c2ccc(-c3ccc(C(F)(F)F)cc3)s2)c(Cl)c1Cl)C(=O)O,153 to 154 °C
23,O=c1[nH]cnc2c1CCN(Cc1ccccc1)C2,199 °C
24,CN1CCN(c2ccc(C#N)nn2)CC1,149 °C
25,O=C(NCCc1ccc(O)cc1)c1ccc2n1Cc1ccccc1N(C(=O)COc1ccc(Cl)cc1)C2,206 to 207 °C

row,Compound,melting point
1,CC(C)[C@H](NC(=O)c1ccc(Cn2nnc(-c3ccc(OC(=O)C(C)(C)C)cc3)n2)cc1)C(=O)OCc1ccccc1,157 to 159 °C
2,CCOC(=O)c1cn(CCOC(C)=O)c2c(F)c(F)c(F)c(C)c2c1=O,192 to 193 °C
3,COC(=O)[C@H]1C[C@H](NC(=O)Nc2ccc(I)cc2)c2c(Cl)cc(Cl)cc2N1 (relative stereo),253 to 255 °C
4,NCc1cccc(OCc2nc(-c3ccc(Cl)cc3)cs2)c1,117 to 118 °C
5,COC(=O)CC[C@H](NC(=O)OCc1ccccc1)C(=O)O,61 to 63 °C
6,Cc1nc(O)c(Br)cc1Br,> 225 °C
7,O=C(C(c1ccccc1)n1cnc2[nH]ncc2c1=S)N1CCN(c2ccccn2)CC1 (stereo not given),242 to 246 °C
8,COC(=O)CSCc1cnc(OC)c([N+](=O)[O-])c1,57 to 60 °C
9,COc1cc2c(cc1OCc1ccccc1)CCN(C(=O)c1cc(OC)c(OC)c(OC)c1)C2=O,195 to 196 °C
10,CC1CCCN1c1nccc(Oc2ccc(NC(=O)c3cc(F)cc(N4CCCCC4)c3)c3ccccc23)n1 (stereo not given),93 to 94 °C
11,CSC1C(=O)Nc2c(OCc3ccccc3)cccc21 (stereo not given),127 to 129 °C
12,Cc1oc(-c2ccccc2)nc1CCOc1ccc([N+](=O)[O-])cn1,110 to 112 °C
13,O=c1[nH]c2ccc(S(=O)(=O)Nc3ccc(Cl)cc3Cl)cc2c(=O)o1,215 °C
14,CCCCCCCCOc1ccc(CCC(N)(CO)CCC)cc1 (stereo not given),43 to 47 °C
15,CCc1cc(CC)nc(Sc2ccnc3cc(Cl)ccc23)n1,64.8 to 66 °C
16,O=C(CCCCc1ccccc1)Nc1ccc(C(=O)NO)cc1,189 to 191 °C
17,Cc1cccc(C=NNC(=O)c2ccc(O)cc2)c1,242 °C
18,COc1cccc(Oc2cc(-c3ccc(C(F)(F)F)cc3)ccn2)c1,77.5 to 79.6 °C
19,CC(C)Oc1cc(-n2c(Cl)nc(C(F)(F)F)cc2=O)c(F)cc1Br,102 °C
20,COc1ccc(NC(=O)C(C#N)C(=O)c2cccn2C)cc1 (stereo not given),192 to 193 °C
21,Cc1[nH]cc2c(=O)n(-c3ccc(Cl)cc3)nc-2c1-c1ccc(N2CCOCC2)cc1,306 to 315 °C
22,O=C(Nc1ccc(-c2ncc(-c3ccc(NC(=O)C4CCCCCC4)cc3)[nH]2)cc1)c1cccnc1,326 to 328 °C
23,COCC1OC(n2cnc3c(N)nc(Cl)nc32)C(O)C1O (stereo not given),200 to 202 °C
24,Cc1cccc2c1C(=O)N(C1CCC(=O)NC1=O)C2=O (stereo not given),290 to 292 °C
25,COC(=O)c1cccc(-c2c(C)c(NC(=O)CC(C)(C)C)c(C)c3c2OCC3c2ccc(C(C)C)cc2)c1 (stereo not given),206 to 208 °C
